In patent publication US8846951B2 (AbbVie Inc., priority 2009, dated 2014):
Read-outs that look alike come from different tables or passages of the source.

Experiments:
5HT2C receptors = molecular target: T1, 5HT2C receptors (Homo sapiens, UniProt P28335); assay: Human 5-HT2C functional high throughput screening assay in CHO-K1 cells (calcium flux); type: cell-based; set-up: expressed in transfected cells; host or cells: CHO-K1 cells; settings: for Emax: CHO-K1, 5-HT2C, maximum functional response as percentage relative to the effect of serotonin; for EC50: CHO-K1 cells, calcium flux
T1 sequence (P28335 33-458): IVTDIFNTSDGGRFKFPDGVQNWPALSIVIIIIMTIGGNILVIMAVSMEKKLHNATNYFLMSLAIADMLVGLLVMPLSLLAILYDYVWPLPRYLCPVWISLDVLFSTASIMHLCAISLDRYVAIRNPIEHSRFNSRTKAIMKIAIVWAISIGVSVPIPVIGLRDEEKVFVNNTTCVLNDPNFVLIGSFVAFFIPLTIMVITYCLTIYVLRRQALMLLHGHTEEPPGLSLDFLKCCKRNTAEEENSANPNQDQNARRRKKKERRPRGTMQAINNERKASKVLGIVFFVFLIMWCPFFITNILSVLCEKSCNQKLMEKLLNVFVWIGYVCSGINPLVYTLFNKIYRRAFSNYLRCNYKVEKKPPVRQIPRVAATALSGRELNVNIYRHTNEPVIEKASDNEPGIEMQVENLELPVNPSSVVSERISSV
Experimental: (§1) (iii) Human 5-HT2C and 5-HT2B Functional High Throughput Screening Assays in CHO-K1 Cells
(§2) CHO-K1 cells over-expressing 5HT2C or 5HT2B receptors were grown in 1272 cm^2 flasks to 70-80% confluency in UltraCHO media (Lonza, Walkersville, Md.) supplemented with 1% dialyzed fetal bovine serum (FBS), 250 μg/mL zeocin, 100 U/mL penicillin and 100 μg/mL streptomycin, and 400 μg/mL geneticin. The cells were dissociated from the flasks using 0.05% trypsin, resuspended in Recovery™ cell culture freezing medium (Invitrogen, Carlsbad, Calif.) and stored in liquid nitrogen until use. The calcium flux experiments were done using frozen cells. The cells were diluted in media containing 1% dialyzed FBS and 100 U/mL penicillin and 100 μg/mL streptomycin and plated into 384-well poly-D-Lysine coated plates (15,000 cells/well). Then the plates were incubated overnight in a cell incubator at 37° C., 5% CO2. On the next day, the growth media was replaced with media without FBS and further incubated overnight. On day three, the changes in intracellular Ca^2+ were determined using calcium sensitive fluorescent dye, Ca4 (MDS Analytical Technologies, Sunnyvale, Calif.) by loading 15 μL of diluted dye in Hank's Balanced Salt Solution and 20 mM Hepes buffer (pH 7.4) with final concentration of 2.5 mM probenecid into the cells containing media. Then the cells were incubated at room temperature for 60 minutes in dark.
(§3) After incubation, the cell plates were transferred to FLIPR™ (MDS) and their fluorescence measurements were read at an excitation wavelength of 480 nm and an emission wavelength of 530 nm at 25° C. The baseline fluorescence was measured for the first 10 seconds and then 15 μL of 4× concentration of serotonin/test compound was added to the cells. The fluorescence intensity was captured every second for the first 1 minute followed by every 5 seconds for an additional 2 minutes. The increase in fluorescent response by a test compound was normalized to the response of serotonin and used to determine agonist activity. The concentration response of compounds was done from a starting concentration of 10 μM, 1:10 dilution across 6 wells with a final dimethyl sulfoxide concentration of 0.2% and was fitted using a 4-parameter logistic equation. The concentration at which a compound exerts half its maximal effect was named as ‘effective concentration 50’ or ‘EC50’. Emax is the maximum functional response or efficacy expressed as a percentage relative to the effect of serotonin.

5HT2B receptors = molecular target: T2, 5HT2B receptors (Homo sapiens, UniProt P41595); assay: Human 5-HT2B functional high throughput screening assay in CHO-K1 cells (calcium flux); type: cell-based; settings: for EC50: CHO-K1 cells, calcium flux
T2 construct: expressed in transfected cells; host or cells: CHO-K1 cells
T2 sequence (P41595 whole entry): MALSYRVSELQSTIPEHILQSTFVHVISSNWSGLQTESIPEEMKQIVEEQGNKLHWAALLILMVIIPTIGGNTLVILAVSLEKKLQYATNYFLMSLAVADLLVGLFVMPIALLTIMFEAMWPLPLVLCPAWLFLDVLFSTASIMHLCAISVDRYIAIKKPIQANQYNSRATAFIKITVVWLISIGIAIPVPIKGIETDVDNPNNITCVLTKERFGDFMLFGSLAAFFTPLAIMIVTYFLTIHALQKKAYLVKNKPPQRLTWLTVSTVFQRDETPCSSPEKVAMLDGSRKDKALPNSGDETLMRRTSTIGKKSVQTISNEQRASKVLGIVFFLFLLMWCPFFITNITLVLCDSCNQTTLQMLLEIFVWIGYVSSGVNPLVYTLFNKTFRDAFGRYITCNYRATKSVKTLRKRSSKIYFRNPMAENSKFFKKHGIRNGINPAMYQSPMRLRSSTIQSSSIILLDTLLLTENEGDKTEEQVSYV
Experimental: as §1, §2, §3; call rule not given here

[1] = 5-HT2B, maximum functional response as percentage relative to the effect of serotonin
[2] = 5-HT2C agonist activity, read-out: EC50
[3] = 5-HT2B agonist activity, read-out: EC50

| SMILES | Emax (5HT2C receptors) | Emax (5HT2B receptors; [1]) | EC50 (5HT2B receptors; EC50, 5-HT2B agonist activity) | EC50 (5HT2C receptors; [2]) | Emax (5HT2C receptors; read-out: Emax) | EC50 (5HT2B receptors; [3]) | EC50 (5HT2C receptors; EC50, 5-HT2C agonist activity) | Emax (5HT2B receptors; CHO-K1) | Emax (5HT2B receptors; CHO-K1, 5-HT2B, maximum functional response as percentage relative to the effect of serotonin, read-out: Emax) |
| --- | --- | --- | --- | --- | --- | --- | --- | --- | --- |
| CN1C[C@@H]2CNC[C@H]2c2ccc(F)cc2C1=O [Example 226, (3aS,10bR)-8-Fluoro-5-methyl-1,2,3,3a,4,5-hexahydrobenzo[c]pyrrolo[3,4-e]azepin-6(10bH)-one] | > 120% | inactive | > 10 µM | – | – | – | – | – | – |
| COc1cc(-c2ccc3c(c2)C(=O)NC[C@@H]2CN(C)C[C@@H]32)ccc1F (relative stereo) [Example 320, Trans-8-(4-fluoro-3-methoxyphenyl)-2-methyl-2,3,3a,4,5,10b-hexahydropyrrolo[3,4-d][2]benzazepin-6(1H)-one] | – | inactive | – | 0.007 µM | 90% | > 10 µM | – | – | – |
| CN1C[C@H]2CNC(=O)c3cc(C=Cc4ccccc4)ccc3[C@@H]2C1 (relative stereo) [Example 85, Trans-2-methyl-8-styryl-1,2,3,3a,4,5-hexahydrobenzo[e]pyrrolo[3,4-c]azepin-6(10bH)-one] | – | inactive | – | 0.121 µM | 100% | > 10 µM | – | – | – |
| CN1C[C@@H]2CNC(=O)c3cc(OCc4c(F)cccc4F)ccc3[C@H]2C1 [Example 209, (3aS,10bS)-8-(2,6-Difluorobenzyloxy)-2-methyl-1,2,3,3a,4,5-hexahydrobenzo[e]pyrrolo[3,4-c]azepin-6(10bH)-one] | – | inactive | – | 0.001 µM | > 120% | > 10 µM | – | – | – |
| O=C1NC[C@@H]2CNC[C@H]2c2c1sc1ccccc21 (relative stereo) [Example 99, Trans-2,3,3a,4,5,11c-hexahydro[1]benzothieno[2,3-e]pyrrolo[3,4-e]azepin-6(1H)-one] | > 120% | – | 1 µM | – | – | – | 0.02 µM | 90% | – |
| Fc1ccc2c(c1)[C@@H]1CNC[C@@H]1CCO2 (relative stereo) [Example 284, Cis-9-fluoro-2,3,3a,4,5,10b-hexahydro-1H-[1]benzoxepino[4,5-c]pyrrole] | 85% | – | 0.01 µM | – | – | – | 0.4 µM | 55% | – |
| COc1ccc2c(c1)[C@H]1CNC[C@@H]1CCC2 (relative stereo) [Example 263, Trans-9-methoxy-1,2,3,3a,4,5,6,10b-octahydrobenzo[3,4]cyclohepta[1,2-c]pyrrole] | > 120% | – | 0.02 µM | – | – | – | 0.1 µM | 100% | – |
| O=C1NC[C@@H]2CNC[C@H]2c2ccc(OCc3c(F)cccc3F)cc21 (relative stereo) [Example 168, Trans-8-(2,6-difluorobenzyloxy)-1,2,3,3a,4,5-hexahydrobenzo[e]pyrrolo[3,4-c]azepin-6(10bH)-one] | – | inactive | – | 0.001 µM | > 120% | > 10 µM | – | – | – |
| Cc1ccc(-c2ccc3c(c2)C(=O)NC[C@@H]2CN(C)C[C@@H]32)cc1 (relative stereo) [Example 82, Trans-2-methyl-8-p-tolyl-1,2,3,3a,4,5-hexahydrobenzo[e]pyrrolo[3,4-c]azepin-6(10bH)-one] | – | inactive | – | 0.0042 µM | > 120% | > 10 µM | – | – | – |
| O=S(=O)(c1ccc(F)cc1)N1Cc2cccnc2[C@@H]2CNC[C@H]2C1 (relative stereo) [Example 357, Trans-6-[(4-fluorophenyl)sulfonyl]-5,6,7,7a,8,9,10,10a-octahydropyrido[3,2-c]pyrrolo[3,4-e]azepine] | 85% | inactive | > 10 µM | – | – | – | 0.1 µM | – | – |
| CN1C[C@@H]2CNC(=O)c3cc(F)cc(F)c3[C@H]2C1 [Example 162, (3aS,10bS)-8,10-Difluoro-2-methyl-1,2,3,3a,4,5-hexahydrobenzo[e]pyrrolo[3,4-c]azepin-6(10bH)-one] | > 120% | – | 0.1 µM | – | – | – | 0.008 µM | 40% | – |
| CC(C)COc1ccc2c(c1)C(=O)NC[C@@H]1CNC[C@@H]21 (relative stereo) [Example 166, Trans-8-isobutoxy-1,2,3,3a,4,5-hexahydrobenzo[e]pyrrolo[3,4-c]azepin-6(10bH)-one] | > 120% | inactive | > 10 µM | – | – | – | – | – | – |
| Cc1cccc(-c2ccc3c(c2)C(=O)NC[C@@H]2CN(C)C[C@@H]32)c1 (relative stereo) [Example 81, Trans-2-methyl-8-m-tolyl-1,2,3,3a,4,5-hexahydrobenzo[e]pyrrolo[3,4-c]azepin-6(10bH)-one] | – | inactive | – | 0.0017 µM | > 120% | > 10 µM | – | – | – |
| O=C1NC[C@@H]2CN(Cc3ccccc3)C[C@H]2c2ncccc21 (relative stereo) [Example 151, Trans-9-benzyl-7,7a,8,9,10,10a-hexahydropyrido[2,3-e]pyrrolo[3,4-c]azepin-5(6H)-one] | > 120% | inactive | > 10 µM | – | – | – | 0.07 µM | – | – |
| Cc1cc(-c2ccc3c(c2)C(=O)NC[C@@H]2CN(C)C[C@@H]32)ccc1F (relative stereo) [Example 314, Trans-8-(4-fluoro-3-methylphenyl)-2-methyl-2,3,3a,4,5,10b-hexahydropyrrolo[3,4-d][2]benzazepin-6(1H)-one] | – | inactive | – | 0.003 µM | 95% | > 10 µM | – | – | – |
| CC(C)C(O)c1cccc(-c2ccc3c(c2)C(=O)NC[C@H]2CN(C)C[C@H]32)c1 (stereo partly drawn) [Example 304, (3aS,10bS)-8-[3-(1-Hydroxy-2-methylpropyl)phenyl]-2-methyl-2,3,3a,4,5,10b-hexahydropyrrolo[3,4-d][2]benzazepin-6(1H)-one] | – | inactive | – | 0.0007 µM | 100% | > 10 µM | – | – | – |
| CN1C[C@H]2CNC(=O)c3cc(-c4cccc(S(C)(=O)=O)c4)ccc3[C@@H]2C1 [Example 229, (3aR,10bR)-2-Methyl-8-(3-(methylsulfonyl)phenyl)-1,2,3,3a,4,5-hexahydrobenzo[c]pyrrolo[3,4-e]azepin-6(10bH)-one] | – | inactive | – | – | 90% | > 10 µM | – | – | – |
| c1ccc(-c2cccc3c2OCC[C@H]2CNC[C@H]32)cc1 (relative stereo) [Example 397, Trans-7-phenyl-2,3,3a,4,5,10b-hexahydro-1H-[1]benzoxepino[4,5-c]pyrrole] | – | inactive | – | 0.005 µM | 95% | > 10 µM | – | – | – |
| Brc1cccc2c1OCC[C@H]1CNC[C@@H]21 (relative stereo) [Example 332, Cis-7-bromo-2,3,3a,4,5,10b-hexahydro-1H-[1]benzoxepino[4,5-c]pyrrole] | 90% | – | 0.03 µM | – | – | – | 0.0009 µM | 20% | – |
| Fc1ccc(F)c2c1OCC[C@H]1CNC[C@@H]21 (relative stereo) [Example 288, Cis-7,10-difluoro-2,3,3a,4,5,10b-hexahydro-1H-[1]benzoxepino[4,5-c]pyrrole] | 90% | – | 0.7 µM | – | – | – | 0.04 µM | 50% | – |
| N#Cc1ccccc1S(=O)(=O)N1Cc2cccnc2[C@@H]2CNC[C@H]2C1 (relative stereo) [Example 355, 2-[Trans-7,7a,8,9,10,10a-hexahydropyrido[3,2-c]pyrrolo[3,4-e]azepin-6(5H)-ylsulfonyl]benzonitrile] | – | – | – | 0.1 µM | 90% | 6 µM | – | – | 10% |
